Experimental findings from ChEMBL document CHEMBL4043139, “Fluoro and pentafluorothio analogs of the antitumoral curcuminoid EF24 with superior antiangiogenic and vascular-disruptive effects” (Bioorg Med Chem, 2017) are described below.

SMILES strings stand for the structures. Active and inactive are the calls of the source. The rule behind the calls is not given here.

Data set [1] has as its system Gallus gallus. The data set is described as follows: Vascular disruptive activity in 6 days post fertilized chicken egg chorioallantoic/vitelline membrane at 10 nmol administered topically measured up to 24 hrs by stereo-microscopic analysis. The data set is classed as functional.
Data set [2] deals with Gallus gallus. The data set is described as follows: Vascular disruptive activity in 6 days post fertilized chicken egg assessed as area covered by blood vessels at 10 nmol administered topically measured after 6 hrs by light microscopic analysis relative to control. The format is functional.
In data set [3] the test system is Gallus gallus. The data set is described as follows: Vascular disruptive activity in 6 days post fertilized chicken egg chorioallantoic/vitelline membrane assessed as disruption of capillary reticulation at 10 nmol administered topically measured after 6 hrs by stereo-microscopic analysis. The format is functional.
Data set [4] deals with Gallus gallus. As to the kind of experiment: Vascular disruptive activity in 6 days post fertilized chicken egg chorioallantoic/vitelline membrane assessed as degradation of blood vessels at 10 nmol administered topically measured after 6 hrs by stereo-microscopic analysis. The format is functional.
In data set [5] the test system is 518A2. The data set is described as follows: Cytotoxicity against human 518A2 cells after 72 hrs by MTT assay. The format is functional, cell-based. On the technique in general: Formazan colour is commonly taken as a measure of viable cells.
Data set [6] relates to HT-29. As to the kind of experiment: Cytotoxicity against human HT-29 cells after 72 hrs by MTT assay. The data set is classed as functional, cell-based.
The next data set relates to HCT-116. The data set is described as follows: Cytotoxicity against human HCT116 cells after 72 hrs by MTT assay. The format is functional, cell-based.
The next data set deals with DLD-1. The data set is described as follows: Cytotoxicity against human DLD1 cells after 72 hrs by MTT assay. The data set is classed as functional, cell-based.
Another data set concerns PANC-1. As to the kind of experiment: Cytotoxicity against human PANC1 cells after 72 hrs by MTT assay. The data set is classed as functional, cell-based.
Data set [7] in a line: (§1) Cytotoxicity against human KB-V1/Vbl cells after 72 hrs by MTT assay. The data set is classed as functional, cell-based.
The test system of a further data set is KB-V1/Vbl. Described as §1. The format is functional, cell-based.
Data set [8] in a line: (§2) Cytotoxicity against human MCF7/Topo cells after 72 hrs by MTT assay. The data set is classed as functional, cell-based.
The next data set has as its system MCF7/Topo. The description is as §2. The format is functional, cell-based.
Data set [9] in a line: (§3) Cytotoxicity against human U87 cells after 72 hrs by MTT assay. The data set is classed as functional, cell-based, U-87MG ATCC. The conditions noted are these: U-87 MG.
The subject of data set [10] is U-87MG ATCC. Described as §3. The format is functional, cell-based.
Data set [11] in a line: Cytotoxicity against HDFa after 72 hrs by MTT assay. The format is cell-based. The conditions noted are these: Homo sapiens.
For data set [12], the system named is HT-29. The data set is described as follows: Cell cycle arrest in human HT-29 cells assessed as accumulation at sub-G1 phase at 1 uM after 24 hrs by propidium iodide staining based flow cytometric analysis (reference value: 0.9 +/- 0.1%). The format is functional. (A flow cytometer gives signals particle by particle.)
Data set [13] relates to HT-29. As to the kind of experiment: Cell cycle arrest in human HT-29 cells assessed as accumulation at sub-G1 phase at 2.5 uM after 24 hrs by propidium iodide staining based flow cytometric analysis (reference value: 0.9 +/- 0.1%). The format is functional.
The subject of data set [14] is HT-29. As to the kind of experiment: Cell cycle arrest in human HT-29 cells assessed as accumulation at sub-G1 phase at 5 uM after 24 hrs by propidium iodide staining based flow cytometric analysis (reference value: 0.9 +/- 0.1%). The data set is classed as functional.
Data set [15] deals with HT-29. The data set is described as follows: Cell cycle arrest in human HT-29 cells assessed as accumulation at G1 phase at 1 uM after 24 hrs by propidium iodide staining based flow cytometric analysis (reference value: 68 +/- 0.9%). The data set is classed as functional.
The test system of data set [16] is HT-29. The data set is described as follows: Cell cycle arrest in human HT-29 cells assessed as accumulation at G1 phase at 2.5 uM after 24 hrs by propidium iodide staining based flow cytometric analysis (reference value: 68 +/- 0.9%). The format is functional.
Data set [17] has as its system HT-29. As to the kind of experiment: Cell cycle arrest in human HT-29 cells assessed as accumulation at G1 phase at 5 uM after 24 hrs by propidium iodide staining based flow cytometric analysis (reference value: 68 +/- 0.9%). The format is functional.
Data set [18] deals with HT-29. As to the kind of experiment: Cell cycle arrest in human HT-29 cells assessed as accumulation at S phase at 1 uM after 24 hrs by propidium iodide staining based flow cytometric analysis (reference value: 15.6 +/- 0.3%). The data set is classed as functional.
Data set [19] relates to HT-29. The data set is described as follows: Cell cycle arrest in human HT-29 cells assessed as accumulation at S phase at 2.5 uM after 24 hrs by propidium iodide staining based flow cytometric analysis (reference value: 15.6 +/- 0.3%). The format is functional.
Data set [20] relates to HT-29. As to the kind of experiment: Cell cycle arrest in human HT-29 cells assessed as accumulation at S phase at 5 uM after 24 hrs by propidium iodide staining based flow cytometric analysis (reference value: 15.6 +/- 0.3%). The format is functional.
Data set [21] concerns HT-29. As to the kind of experiment: Cell cycle arrest in human HT-29 cells assessed as accumulation at G2/M phase at 1 uM after 24 hrs by propidium iodide staining based flow cytometric analysis (reference value: 15.5 +/- 0.5%). The format is functional.
Data set [22] relates to HT-29. As to the kind of experiment: Cell cycle arrest in human HT-29 cells assessed as accumulation at G2/M phase at 2.5 uM after 24 hrs by propidium iodide staining based flow cytometric analysis (reference value: 15.5 +/- 0.5%). The data set is classed as functional.
For data set [23], the system named is HT-29. The data set is described as follows: Cell cycle arrest in human HT-29 cells assessed as accumulation at G2/M phase at 5 uM after 24 hrs by propidium iodide staining based flow cytometric analysis (reference value: 15.5 +/- 0.5%). The format is functional.
The test system of data set [24] is HT-29. The data set is described as follows: Upregulation of cyclin B1 expression in human HT-29 cells at 1 to 2.5 uM after 24 hrs by Western blot analysis. The data set is classed as functional, cell-based. In general terms: A western blot detects proteins with antibodies after separation by electrophoresis.
The species named for another data set is Homo sapiens. As to the kind of experiment: Inhibition of NF-kappaB in human 518A2 cells assessed as reduction in p65 subunit expression at 0.5 to 1 uM after 24 hrs by Western blot analysis. The data set is classed as cell-based.
Data set [25] has as its system 518A2. The data set is described as follows: Anti-migratory activity in human 518A2 cells assessed as wound closure at 250 nM after 24 hrs by light microscopic analysis. The data set is classed as functional, cell-based.
In data set [26] the test system is 518A2. As to the kind of experiment: Anti-migratory activity in human 518A2 cells assessed as wound closure at 250 nM after 48 hrs by light microscopic analysis (reference value: 100%). The format is functional.
For another data set, the species on record is Danio rerio. As to the kind of experiment: Antiangiogenic activity in 72 hrs post fertilized zebra fish embryo harboring fli1a:EGFP assessed as area of subintestinal veins at 5 uM after 48 hrs by fluorescence microscopic analysis (reference value: 100%). The format is functional.
Data set [27] relates to Gallus gallus. As to the kind of experiment: Toxicity in 6 days post fertilized chicken egg at 10 nmol administered topically. As to conditions: in vivo, topical_or_ocular, 144 h.
Data set [28] has as its system Gallus gallus. As to the kind of experiment: Vascular disruptive activity in 6 days post fertilized chicken egg chorioallantoic/vitelline membrane at 10 nmol administered topically measured after 24 hrs by stereo-microscopic analysis. The data set is classed as functional.
Data set [29] deals with U-87MG ATCC. As to the kind of experiment: Anti-vasculogenic activity in human U87 cells assessed as reduction in formation of cord-like structures at 2.5 uM after 24 hrs by matrigel based light microscopic analysis. The format is functional, cell-based.
The subject of data set [30] is U-87MG ATCC. The data set is described as follows: Anti-vasculogenic activity in human U87 cells assessed as reduction in formation of blood-vessel like tubular structures at 2.5 uM after 24 hrs by matrigel based light microscopic analysis. The data set is classed as functional, cell-based.
Data set [31] deals with U-87MG ATCC. The data set is described as follows: Anti-vasculogenic activity in human U87 cells assessed as reduction in formation of small stray colonies at 2.5 uM after 24 hrs by matrigel based light microscopic analysis. The data set is classed as functional, cell-based.
Data set [32] can be described thus: Cytotoxicity against human U87 cells assessed as cell viability at 10 nmol after 24 hrs by MTT assay relative to control. The data set is classed as cell-based, U-87MG ATCC. The conditions noted are these: read-out: Activity.
The test system of data set [33] is U-87MG ATCC. The data set is described as follows: Vascular disruptive activity in human U87 cells assessed as disruption of preformed tubular networks at 1 uM after 24 hrs by matrigel based light microscopic analysis. The data set is classed as functional, cell-based.
A short description of data set [34]: Cytotoxicity against human U87 cells assessed as effect on cell viability at 1 uM after 24 hrs by MTT assay. The conditions noted are these: u-87mg atcc. The data set is classed as cell-based.

As for `COc1cc(/C=C/C(=O)CC(=O)/C=C/c2ccc(O)c(OC)c2)ccc1O`, the outcome in the data set with Gallus gallus [1] and in the data set on Gallus gallus [2] was inactive.
In general, IC50 refers to the concentration that gives 50% inhibition. Read a low IC50 as inhibition by little substance. On to `CN1C/C(=C\c2cc(F)c(F)cc2F)C(=O)/C(=C/c2cc(F)c(F)cc2F)C1`, for which the result with Gallus gallus [3], in the data set with Gallus gallus [4], with HT-29 [24], in the data set with 518A2 [25], in the data set with 518A2 [26] and in the data set on U-87MG ATCC [33] was Active. In addition, the Activity result in the data set on 518A2 [5], in the data set on HT-29 [6], in the data set with HCT-116, in the data set on DLD-1, in the data set with PANC-1 and with KB-V1/Vbl was “Dose-dependent effect” throughout. The Activity result in the data set on MCF7/Topo is “Dose-dependent effect”; with U-87MG ATCC [10], “Dose-dependent effect”; in the data set with HT-29 [12] it was 2.3%; in the data set on HT-29 [13], 17%; in the data set on HT-29 [14], 19.7%; in the data set with HT-29 [15], 61.3%. Further, the Activity with HT-29 [16] amounted to 46.8%; with HT-29 [17], 28.2%; in the data set on HT-29 [18], 18.7%; with HT-29 [19], 13%; in the data set with HT-29 [20] it was 28.3%; with HT-29 [21], 17.7%. Further, the Activity is on record as 23.2% with HT-29 [22]; 23.7% in the data set on HT-29 [23]; 39% in the data set filed under Danio rerio; “Non-Toxic” in the data set on Gallus gallus [27]; 44% in the data set on Gallus gallus [2]; “Non-Toxic” in data set [34]. For the same compound, the IC50 with 518A2 [5] (518A2, 72 h) is 1.6 µM; in the data set on HT-29 [6] (HT-29, 72 h), 0.84 µM; in the data set on HCT-116 (HCT-116, 72 h), 1.5 µM; with DLD-1 (DLD-1, 72 h), 1.8 µM; in the data set on PANC-1 (PANC-1, 72 h), 1.6 µM; in data set [7], 0.72 µM. Also, the IC50 is 1.6 µM in data set [8], 3.1 µM in data set [9] and greater than 10 µM in [11]. Also, the inhibition entry in the data set filed under Homo sapiens was “Active”. For the same compound, the result in the data set with Gallus gallus [28], in the data set on U-87MG ATCC [29], in the data set with U-87MG ATCC [30] and in the data set on U-87MG ATCC [31] was inactive. In addition, the viability at 24 h, 10 nmol in [32] was greater than 85%.
